Measurements from ChEMBL document CHEMBL2163249, “Exploration of natural compounds as sources of new bifunctional scaffolds targeting cholinesterases and beta amyloid aggregation: the case of chelerythrine” (Bioorg Med Chem, 2012).

Key:
[1] = molecular target: Acetylcholinesterase (Electrophorus electricus) (UniProt O42275); details: at 2 mg/mL
Description: Inhibition of electric eel AChE at 2 mg/ml by Ellman's method

[2] = molecular target: Cholinesterase (Equus caballus) (UniProt P81908); details: at 2 mg/mL
Cholinesterase (Equus caballus), sequence (P81908 whole entry): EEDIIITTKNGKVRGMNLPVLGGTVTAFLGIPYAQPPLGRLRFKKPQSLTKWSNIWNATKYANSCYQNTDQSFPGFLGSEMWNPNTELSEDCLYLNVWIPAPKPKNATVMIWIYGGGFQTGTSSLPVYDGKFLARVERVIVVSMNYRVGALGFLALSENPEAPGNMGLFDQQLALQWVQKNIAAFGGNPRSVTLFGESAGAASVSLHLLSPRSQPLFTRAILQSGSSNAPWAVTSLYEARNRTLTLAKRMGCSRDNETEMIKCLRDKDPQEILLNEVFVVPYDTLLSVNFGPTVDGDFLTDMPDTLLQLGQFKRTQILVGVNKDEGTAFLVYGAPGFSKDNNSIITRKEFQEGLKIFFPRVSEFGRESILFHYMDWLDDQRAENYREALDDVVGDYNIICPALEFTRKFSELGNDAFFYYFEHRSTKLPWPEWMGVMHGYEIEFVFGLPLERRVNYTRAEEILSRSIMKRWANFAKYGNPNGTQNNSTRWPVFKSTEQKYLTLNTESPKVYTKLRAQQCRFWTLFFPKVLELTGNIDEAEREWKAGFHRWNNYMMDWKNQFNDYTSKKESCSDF
Description: Inhibition of horse BChE at 2 mg/ml by Ellman's method

Acetylcholinesterase (Electrophorus electricus), sequence (O42275 24-633 limits assumed): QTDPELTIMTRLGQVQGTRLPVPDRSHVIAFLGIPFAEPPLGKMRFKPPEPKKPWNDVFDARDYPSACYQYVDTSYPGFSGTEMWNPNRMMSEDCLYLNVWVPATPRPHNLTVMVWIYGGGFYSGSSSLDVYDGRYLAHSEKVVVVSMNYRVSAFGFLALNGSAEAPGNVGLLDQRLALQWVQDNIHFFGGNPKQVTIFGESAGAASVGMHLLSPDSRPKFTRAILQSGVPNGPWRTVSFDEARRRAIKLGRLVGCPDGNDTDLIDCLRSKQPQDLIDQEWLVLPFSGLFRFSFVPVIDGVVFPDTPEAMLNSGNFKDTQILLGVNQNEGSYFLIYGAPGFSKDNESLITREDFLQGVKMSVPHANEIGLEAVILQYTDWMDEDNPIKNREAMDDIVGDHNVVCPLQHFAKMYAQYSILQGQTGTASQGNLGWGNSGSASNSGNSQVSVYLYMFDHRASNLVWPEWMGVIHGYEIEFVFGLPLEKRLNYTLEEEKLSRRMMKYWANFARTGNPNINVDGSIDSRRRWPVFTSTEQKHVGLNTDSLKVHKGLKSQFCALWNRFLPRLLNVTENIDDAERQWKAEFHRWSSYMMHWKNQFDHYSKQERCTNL

CC(C)(O)CC[C@@H](O)[C@](C)(O)[C@H]1CC[C@@]2(O)C3=CC(=O)[C@@H]4C[C@@H](O)[C@@H](O)C[C@]4(C)[C@H]3CC[C@]12C
inhibition [1]: 3.26%
inhibition [2]: -3.01%

CCCCC[C@H](O)/C=C/[C@H]1[C@H](O)CC(=O)[C@@H]1CCCCCCC(=O)O
inhibition [1]: 16.6%
inhibition [2]: -1.69%

COc1ccc(-c2cc(=O)c3c(O)cc(O[C@@H]4O[C@H](CO[C@@H]5O[C@@H](C)[C@H](O)[C@@H](O)[C@H]5O)[C@@H](O)[C@H](O)[C@H]4O)cc3o2)cc1O
inhibition [1]: 9.59%
inhibition [2]: 7.92%

C=C1[C@@H](C)[C@H]2[C@H](Cc3ccccc3)NC(=O)[C@]23[C@H](OC(C)=O)/C=C/[C@@](C)(O)C(=O)[C@@H](C)C/C=C/[C@H]3[C@@H]1O
inhibition [1]: -2.15%
inhibition [2]: 3.92%

COc1cc(-c2oc3cc(O)cc(O)c3c(=O)c2O)ccc1O
inhibition [1]: 5.76%
inhibition [2]: -2.06%

COc1ccc2c(c1OC)C(=O)OC2C1c2c(cc3c(c2OC)OCO3)CCN1C (racemic)
inhibition [1]: -5.54%
inhibition [2]: 3.34%

COc1cc([C@@H]2c3cc4c(cc3[C@@H](O)[C@H]3COC(=O)[C@H]23)OCO4)cc(OC)c1O
inhibition [1]: 6.34%
inhibition [2]: -7.02%

C[C@@]1(CO)[C@H](O)CC[C@@]2(C)[C@H]1CC[C@H]1C[C@@H]3C[C@@]12CC[C@]3(O)CO
inhibition [1]: 8.45%
inhibition [2]: 13.5%

O=C1c2cccc(O)c2C(=O)c2c(O)cc(CO)cc21
inhibition [1]: 14.6%
inhibition [2]: -0.88%

O=c1cc(-c2ccc(O)cc2)oc2cc(OC3O[C@H](CO)[C@@H](O)[C@H](O)[C@H]3O)cc(O)c12 (some centres undefined)
inhibition [1]: 24.9%
inhibition [2]: 5%

C=C(C)[C@H]1CN[C@H](C(=O)O)[C@H]1CC(=O)O
inhibition [1]: -5.89%
inhibition [2]: 4.53%

C=C[C@H]1CN2CC[C@H]1C[C@H]2[C@H](O)c1ccnc2ccc(OC)cc12
inhibition [1]: 15.8%
inhibition [2]: 24.7%

CCCC[C@@H](C)[C@@H](OC(=O)C[C@@H](CC(=O)O)C(=O)O)[C@H](C[C@@H](C)CCCCCC[C@@H](O)C[C@H](O)[C@H](C)N)OC(=O)C[C@@H](CC(=O)O)C(=O)O
inhibition [1]: -8.37%
inhibition [2]: 15.1%

O=c1cc(-c2ccccc2)oc2cc(O)cc(O)c12
inhibition [1]: 14.6%
inhibition [2]: 2.93%

Cn1c(-c2ccc3c(c2)OCO3)cc(=O)c2ccccc21
inhibition [1]: 31.1%
inhibition [2]: 9.48%

CCCCCCCCCCC[C@@H](C[C@@H]1OC(=O)[C@H]1CCCCCC)OC(=O)[C@H](CC(C)C)NC=O
inhibition [1]: -6.52%
inhibition [2]: 7.43%

CC1(C)[C@@H](O)CC[C@]2(C)[C@H]3C(=O)C=C4[C@@H]5C[C@@](C)(C(=O)O)CC[C@]5(C)CC[C@@]4(C)[C@]3(C)CC[C@@H]12
inhibition [1]: -3.12%
inhibition [2]: 4.46%

CC(=O)C1=C(O)C=C2Oc3c(C(C)=O)c(O)c(C)c(O)c3[C@@]2(C)C1=O
inhibition [1]: 2.06%
inhibition [2]: 4.28%

C=CCc1ccc(O)c(-c2ccc(O)c(CC=C)c2)c1
inhibition [1]: -3.48%
inhibition [2]: 7.62%

C=CCc1ccc(O)c(-c2cc(CC=C)ccc2O)c1
inhibition [1]: -2.45%
inhibition [2]: 0.25%

COC1=C(C(C)=O)C2=C(C)Cc3c(OC)c(=O)c(O)c4cc(OC)c5c(OC)cc(O)c6c(c2c3c4c56)C1=O
inhibition [1]: 4.6%
inhibition [2]: -0.88%

COC[C@H]1OC(=O)c2coc3c2[C@@]1(C)C1=C(C3=O)[C@@H]2CCC(=O)[C@@]2(C)C[C@H]1OC(C)=O
inhibition [1]: 16.2%
inhibition [2]: -6.29%

CC(C)(S)[C@H](N)C(=O)O
inhibition [1]: 11.7%
inhibition [2]: -6.36%

O=C1/C(=C/c2ccc(O)c(O)c2)Oc2c1ccc(O[C@@H]1O[C@H](CO)[C@@H](O)[C@H](O)[C@H]1O)c2O
inhibition [1]: 22.4%
inhibition [2]: 3.06%

O=c1oc2ccccc2c(O)c1Cc1c(O)c2ccccc2oc1=O
inhibition [1]: 12.3%
inhibition [2]: 5.48%

CC1(C)CCC[C@]2(C)[C@H]3CC(=O)O[C@]3(C)CC[C@@H]12
inhibition [1]: -6.49%
inhibition [2]: -1.03%

C[C@H]1COC2=C1C(=O)C(=O)c1c2ccc2c1CCCC2(C)C
inhibition [1]: 3.33%
inhibition [2]: 12.1%
